In patent US20030232851A1, “Viral treatment” (The Procter & Gamble Company, priority 1999, published 2003):
“And” between values parts separate entries of the source, which are not always exact repeats. Equal entries are not always repeated.

Columns and labels:
Assay type in all cases: cell-based
[1] = Kaposi's Sarcoma test: toxicity values; design: Toxicity Values, samples 1-3 / Toxicity Values, average: scale not given here; conditions: human, TPA-induced BCBL-1 cells (HHV8 cell line); read-out: TC50 (the source's name)
Procedure: (§1) The DNA copy number and the toxicity value were measured and compared with Cidofovir.

TPA-induced BCBL-1 cells = test: Kaposi's Sarcoma test: toxicity values; design: Toxicity Values, samples 1-3 / Toxicity Values, average: scale not given here
Procedure: as §1

HIV-1 cell line, CEMIIIB = test: Long term in vitro study, CEMIIIB, reverse transcriptase
Procedure: A microtiter-based reveres transcriptase (RT) reaction is utilized (Buckheit et al (1991) AIDS Research and Human Retroviruses 7:295-302). Tritiated thymidine triphosphate (NEN)(TTP) is resuspended in distilled water at 5 Ci/ml. Poly rA and oligo dT are prepared as a stock solution which is kept at −20° C. The RT reaction buffer is prepared fresh on a daily basis and consists of 125 μl 1M EGTA, 125 μl water, 125 μl Triton X-100, 50 μl Tris (pH 7.4), 50 μl 1 MDDT, and 40 μl 1M MgCl2. These three solutions are mixed together in a ratio of 1 part TTP, 2.5 parts poly rA:oligo dT, 2.5 parts reaction buffer and 4 parts distilled water. Ten microliters of this reaction mixture is placed in a round bottom microtiter place and 15 μl of virus containing supernatant is added and mixed. The plate is incubated at 37° C. for 60 minutes. Following reaction, the reaction volume is spotted onto filter mats, washed 6 times for 5 minutes each in a 5% sodium phosphate buffer, 2 times for 1 minute each in distilled water, 2 times for 1 minute each in 70% ethanol, and then dried. The dried filter mat is placed in a plastic sample bag, Betaplate scintillation fluid is added and the bag is heat sealed. Incorporated radioactivity is quantified utilizing a Wallac Microbeta scintillation counter.
Acute infection of most established human cell lines with HIV-1 results in the eventual establishment of a constitutive virus-producing chronically infected cell line. The cells can be passaged for long periods of time in culture without loss of virus production. These cells may be utilized to evaluate the effects of anti-HIV compounds on syncytium formation or to evaluate the effects of anti-HIV compounds on levels of virus production from these cells. […] Each of the cells contains an integrated HIV genome or provirus. Chronically infected CEM, H9 and U937 cell lines have been prepared and cultured by Southern Research Institute, Frederick Md. and are available from them.
CEM-SS cells chronically infected with HIV isolate, for example SKI (CEM-SKI) are cultured in RPMI1640 tissue culture medium supplemented with 10% fetal bovine serum and antibiotics. […] CEM-SKI or other infected cells with no added drug are used as the control cells. Cells are allowed to grow to a density of approximately 1×10^6 cells/ml and are then passaged at a 1:10 dilution. […] The drug concentration in the flask is then increased two-fold and the cells maintained as above.
The cell populations contain integrated copies of the HIV genome and constitutively produce HIV at relatively high levels or are latently infected and only produce virus after stimulation with phorbol esters, tumor necrosis factor or IL6 (U1 and ACH2). Reductions in virus products were observed when quantifying supernatant reverse transcriptase activity,
A long term in vitro study of 2-(2-thienyl)-imidazolo [4,5-b]pyridine against an HIV-1 cell line, CEMIIIB was conducted at three different levels. The results with CEMIIIB cells were reported at weekly intervals. The CEMIIIB is a viral strain of the CEMSS cell line and is a chronic HIV cell line.

For `c1csc(-c2nc3cccnc3[nH]2)c1` [2-(2-thienyl)-imidazolo [4,5-b]pyridine], the CC50 [1] was 32.6 µM, the “Toxicity Values, % cell control” value (TPA-induced BCBL-1 cells; 0.64 μM) was 110.5% and the “Toxicity Values, average” value (TPA-induced BCBL-1 cells; 0.64 μM) was 1.160. The “Toxicity Values, samples 1-3” value (TPA-induced BCBL-1 cells; 0.64 μM) was 1.034 and 1.201 and 1.245, the “Toxicity Values, % cell control” value (TPA-induced BCBL-1 cells; 2 μM) was 111.7% and the “Toxicity Values, average” value (TPA-induced BCBL-1 cells; 2 μM) was 1.172. The “Toxicity Values, samples 1-3” value (TPA-induced BCBL-1 cells; 2 μM) was 1.155 and 1.182 and 1.179, the “Toxicity Values, % cell control” value (TPA-induced BCBL-1 cells; 6.4 μM) was 111.5% and the “Toxicity Values, average” value (TPA-induced BCBL-1 cells; 6.4 μM) was 1.170. The “Toxicity Values, samples 1-3” value (TPA-induced BCBL-1 cells; 6.4 μM) was 1.198 and 1.119 and 1.193, the “Toxicity Values, % cell control” value (TPA-induced BCBL-1 cells; 20 μM) was 69.5% and the “Toxicity Values, average” value (TPA-induced BCBL-1 cells; 20 μM) was 0.729. The “Toxicity Values, samples 1-3” value (TPA-induced BCBL-1 cells; 20 μM) was 0.701 and 0.706 and 0.782, the “Toxicity Values, % cell control” value (TPA-induced BCBL-1 cells; 64 μM) was 1.5% and the “Toxicity Values, average” value (TPA-induced BCBL-1 cells; 64 μM) was 0.016. The “Toxicity Values, samples 1-3” value (TPA-induced BCBL-1 cells; 64 μM) was 0.020 and 0.016 and 0.013, the “Toxicity Values, % cell control” value (TPA-induced BCBL-1 cells; 200 μM) was 6.4% and the “Toxicity Values, average” value (TPA-induced BCBL-1 cells; 200 μM) was 0.067. For the same compound, the “Toxicity Values, samples 1-3” value (TPA-induced BCBL-1 cells; 200 μM) was 0.068 and 0.067, the reverse transcriptase data (HIV-1 cell line, CEMIIIB; 7 μg/ml, day 4) was 4631 and the reverse transcriptase data (HIV-1 cell line, CEMIIIB; 7 μg/ml, day 11) was 4222. It also gave a reverse transcriptase data (HIV-1 cell line, CEMIIIB; 7 μg/ml, day 18) of 843, a reverse transcriptase data (HIV-1 cell line, CEMIIIB; 7 μg/ml, day 25) of 1052 and a reverse transcriptase data (HIV-1 cell line, CEMIIIB; 7 μg/ml, day 32) of 1456. For the same compound, the reverse transcriptase data (HIV-1 cell line, CEMIIIB; 7 μg/ml, day 39) was 4298, the reverse transcriptase data (HIV-1 cell line, CEMIIIB; 7 μg/ml, day 46) was 1643 and the reverse transcriptase data (HIV-1 cell line, CEMIIIB; 7 μg/ml, day 53) was 1458. It also gave a reverse transcriptase data (HIV-1 cell line, CEMIIIB; 7 μg/ml, day 60) of 1409, a reverse transcriptase data (HIV-1 cell line, CEMIIIB; 7 μg/ml, day 67) of 1903 and a reverse transcriptase data (HIV-1 cell line, CEMIIIB; 7 μg/ml, day 71) of 1832. For the same compound, the reverse transcriptase data (HIV-1 cell line, CEMIIIB; 7 μg/ml, day 74) was 1980, the reverse transcriptase data (HIV-1 cell line, CEMIIIB; 7 μg/ml, day 88) was 1520 and the reverse transcriptase data (HIV-1 cell line, CEMIIIB; 7 μg/ml, day 95) was 1367. It also gave a reverse transcriptase data (HIV-1 cell line, CEMIIIB; 7 μg/ml, day 102) of 1497, a reverse transcriptase data (HIV-1 cell line, CEMIIIB; 7 μg/ml, day 109) of 1165 and a reverse transcriptase data (HIV-1 cell line, CEMIIIB; 15 μg/ml, day 4) of 5622. It also gave a reverse transcriptase data (HIV-1 cell line, CEMIIIB; 15 μg/ml, day 11) of 1828, a reverse transcriptase data (HIV-1 cell line, CEMIIIB; 15 μg/ml, day 18) of 683 and a reverse transcriptase data (HIV-1 cell line, CEMIIIB; 15 μg/ml, day 25) of 741. For the same compound, the reverse transcriptase data (HIV-1 cell line, CEMIIIB; 15 μg/ml, day 32) was 1005, the reverse transcriptase data (HIV-1 cell line, CEMIIIB; 15 μg/ml, day 39) was 948 and the reverse transcriptase data (HIV-1 cell line, CEMIIIB; 15 μg/ml, day 46) was 1361. It also gave a reverse transcriptase data (HIV-1 cell line, CEMIIIB; 15 μg/ml, day 53) of 1281, a reverse transcriptase data (HIV-1 cell line, CEMIIIB; 15 μg/ml, day 60) of 679 and a reverse transcriptase data (HIV-1 cell line, CEMIIIB; 15 μg/ml, day 67) of 1251. It also gave a reverse transcriptase data (HIV-1 cell line, CEMIIIB; 15 μg/ml, day 71) of 1241, a reverse transcriptase data (HIV-1 cell line, CEMIIIB; 15 μg/ml, day 74) of 1361 and a reverse transcriptase data (HIV-1 cell line, CEMIIIB; 15 μg/ml, day 88) of 1201. It also gave a reverse transcriptase data (HIV-1 cell line, CEMIIIB; 15 μg/ml, day 95) of 562, a reverse transcriptase data (HIV-1 cell line, CEMIIIB; 15 μg/ml, day 102) of 1043 and a reverse transcriptase data (HIV-1 cell line, CEMIIIB; 15 μg/ml, day 109) of 1036. The reverse transcriptase data (HIV-1 cell line, CEMIIIB; 30 μg/ml, day 4) was 1968, the reverse transcriptase data (HIV-1 cell line, CEMIIIB; 30 μg/ml, day 11) was 2145 and the reverse transcriptase data (HIV-1 cell line, CEMIIIB; 30 μg/ml, day 18) was 554. For the same compound, the reverse transcriptase data (HIV-1 cell line, CEMIIIB; 30 μg/ml, day 25) was 436, the reverse transcriptase data (HIV-1 cell line, CEMIIIB; 30 μg/ml, day 32) was 712 and the reverse transcriptase data (HIV-1 cell line, CEMIIIB; 30 μg/ml, day 39) was 520. The reverse transcriptase data (HIV-1 cell line, CEMIIIB; 30 μg/ml, day 46) was 281, the reverse transcriptase data (HIV-1 cell line, CEMIIIB; 30 μg/ml, day 53) was 543 and the reverse transcriptase data (HIV-1 cell line, CEMIIIB; 30 μg/ml, day 60) was 406. The reverse transcriptase data (HIV-1 cell line, CEMIIIB; 30 μg/ml, day 67) was 391, the reverse transcriptase data (HIV-1 cell line, CEMIIIB; 30 μg/ml, day 71) was 281 and the reverse transcriptase data (HIV-1 cell line, CEMIIIB; 30 μg/ml, day 74) was 651. For the same compound, the reverse transcriptase data (HIV-1 cell line, CEMIIIB; 30 μg/ml, day 88) was 241, the reverse transcriptase data (HIV-1 cell line, CEMIIIB; 30 μg/ml, day 95) was 102 and the reverse transcriptase data (HIV-1 cell line, CEMIIIB; 30 μg/ml, day 102) was 256. The reverse transcriptase data (HIV-1 cell line, CEMIIIB; 30 μg/ml, day 109) was 376 and the “reverse transcriptase data on continuation (in words)” value (HIV-1 cell line, CEMIIIB; run through 242 days) was “data remained consistent”.
